Measured values as given in US11426415B2, “Treatment for Wolfram syndrome and other endoplasmic reticulum stress disorders” (Washington University, priority 2017, dated 2022).
Like-named read-outs stand apart in the source and are kept apart here.

Assays:
mouse model of SCA = conditions: given with a RyR inhibitor; cited from earlier work
[1] = tested on: WFS1 depleted INS-1 832/13 cells; assay: Cell death in WFS1 depleted INS-1 832/13 cells (Caspase 3/7 activation); assay type: cell-based; conditions: pretreated 24 h with various concentrations, then DOX 48 h to deplete WFS1; FIGS. 3 and 4
Text: (§1) A Caspase 3/7 assay (Promega, Madison, Wis.) was utilized to measure caspase-3 and -7 activities in various cell lines. The assay provides a proluminescent caspase-3/7 substrate, which contains the tetrapeptide sequence DEVD. This caspase-3/7 substrate can be added directly to cell lysates. The substrate is cleaved to release an aminoluciferin, which is a substrate for luciferase used in the production of light. The signal is proportional to caspase-3/7 activity. The stabilized luciferase and proprietary buffer system improve assay performance across a wide range of assay conditions, and the assay is less likely to be affected by compound interference unlike fluorescent- or colorimetric-based assays
INS-1 832/13 cells in which WFS1 expression could be depleted by doxycycline (DOX)-inducible expression of shWFS1 were pretreated with or without various concentrations of JTV519 or oxidized JTV519 for 24 h and then treated with DOX for 48 h to deplete WFS1 and induce cell death. Apoptosis was measured by monitoring Caspase 3/7 activation.

INS-1 832/13 cells = assay: Cytosolic calcium levels by Fura-2AM in INS-1 832/13 cells challenged with thapsigargin; assay type: cell-based; conditions: range of concentrations, thapsigargin 1 μM added, FIGS. 5 and 6
Method: INS-1 832/13 cells were treated with JTV519 or JTV519-oxidized over a range of concentrations. Cytoplasmic calcium levels were measured by Fura-2AM calcium indicator over a period of minutes. Thapsigargin (1 μM) was added at the time point indicated by an arrow (n=6, the experiment was repeated 6 independent times) on FIGS. 5 and 6.

INS-1 823/13 cells = assay: Thapsigargin-mediated cell death (caspase 3/7-Glo luminescence); assay type: cell-based; conditions: pretreated 24 hours, then 0.5 nM thapsigargin overnight; FIGS. 7-9
Text: as §1
The pathway leading to calpain-2 activation provides potential therapeutic targets for Wolfram syndrome, such as leakage of ER calcium to the cytosol. To test this concept, a small-scale screen was performed to identify chemical compounds that could prevent cell death mediated by thapsigargin, a known inhibitor for ER calcium ATPase. INS-1 823/13 cells were pretreated with […] in media containing 0.5 nM of thapsigargin (TG) overnight. Apoptosis was detected by caspase 3/7-Glo luminescence.

INS-1E cells = assay: Cytokine-induced cell death in INS-1E cells (caspase 3/7 activity assay); assay type: cell-based; conditions: 1 μM-50 μM for 24 hours, then IL-1β and IFN-γ 50 ng/ml for 24 hours; FIG. 10
Text: as §1
To determine whether JTV519 can prevent ER calcium depletion and confer protection against ER stress-mediated cell death in a cell model of type 1 diabetes. INS-1E cells were pre-treated with 1 μM-50 μM of JTV519 for 24 hours then stressed for 24 hours with cytokines (IL-1β and IFN-γ 50 ng/ml). Apoptotic cell death was measured via caspase 3/7 activity assay. […] Data are expressed as mean±SEM from three independent experiments. *p<0.05 compared to cytokine treated cells unpaired t-test.

[2] = Pharmacokinetic study of JTV519 in CD1 mice (UPLC-MS/MS); assay type: in vivo; conditions: for AUC(0-inf) / Cmax / half-life / Kp: CD-1 mouse; for Kp: read-out: AUC ratio (with plasma)
Method: To study the pharmacokinetics of JTV519, the compound was synthesized as the HCl salt and formulated as a clear solution in 20% HP-β-CD in saline and intraperitoneally injected into CD1 mice. Samples of blood and pancreas tissue and whole brain and heart organs were collected from the mice and analyzed.
An ultra-performance liquid chromatography-tandem mass spectrometry (UPLC-MS/MS) method was developed to determine sample concentrations in the samples. Mass spectrometric analysis was performed on a Waters Xevo TQ-S triple quadrupole instrument using electrospray ionization in positive mode with the selected reaction monitoring (SRM). The MS/MS parameters were optimized by infusion compounds. The separation was performed on an Acquity BEH C18 column (50×2.1 mm, 1.7μ) using a Waters Acquity UPLC system with 0.6 mL/min flow rate and gradient elution. The column temperature was maintained at 60° C. The calibration standards (1.0-5000 ng/mL) and quality control samples were prepared in the blank mouse plasma. 10 μL plasma samples were mixed with 200 μL internal standard in acetonitrile to precipitate proteins in a 96-well plate. 1.0 μL supernatant was injected for the UPLC-MS/MS analysis

WFS1 gene knockout mice = assay: Motor function study, 90° inclined screen test; assay type: in vivo; conditions: i.p. 15 mg/kg/day, 5 days per week, 6 weeks, vs control mice, FIG. 11
Method: WFS1 gene knockout mice, a mouse model of Wolfram syndrome, were treated with JTV519 (i.p. injections, 15 mg/kg/day, 5 days per week) or saline after they become 6 weeks old for 6 weeks (5 female mice for each group). Littermate wild-type control mice were treated by saline (VEH) for 6 weeks (3 female mice). Motor functions of the WFS1 knockout were evaluated using a 90° inclined screen test.
For the 90° inclined screen test, each mouse was placed on top of an elevated (47 cm above the floor) wire mesh grid (16 squares per 10 cm) that was inclined to 90°. Each mouse was placed in the middle of the screen with its head oriented down and was timed for how long it remained on the screen and how long it took to climb to the top of the screen.

[3] = conclusion from the pharmacokinetic study

Which “age dependent deficit of motor coordination” value (mouse model of SCA) does the source give for O=C1CN(/N=C/c2ccc(-c3ccc([N+](=O)[O-])cc3)o2)C(=O)[N-]1.[Na+] [Dantrolene, 1-[[5-(4-nitrophenyl)-2-furyl]methylideneamino]imidazolidine-2,4-dione] here?
The value was “ameliorated the age dependent deficit of motor coordination”.

With COc1ccc2c(c1)CN(C(=O)CCN1CCC(Cc3ccccc3)CC1)CCS2 [JTV519, 3-(4-benzyl-1-piperidinyl)-1-(7-methoxy-2,3-dihydro-1,4-benzothiazepin-4(5H)-yl)-1-propanone] as the compound, how does the “cell death (apoptosis, Caspase 3/7 activation)” value [1] read?
Its value is “suppress cell death”.

And the cytosolic calcium levels (INS-1 832/13 cells)?
The cytosolic calcium levels was “decreased cytosolic calcium levels”.

And the “thapsigargin mediated cell death (apoptosis, caspase 3/7-Glo)” value (INS-1 823/13 cells)?
Its value is “did not significantly suppress thapsigargin mediated cell death”.

And the “cytokine-induced cell death (caspase 3/7 activity)” value (INS-1E cells)?
The value was “protects INS-1E cells from cytokine-induced cell death”.

And the AUC(0-inf) ([2]; brain, ip 30 mg/kg, n = 3)?
Its AUC(0-inf) is 10100 ng·h/mL.

What about the Cmax ([2]; brain, ip 30 mg/kg, n = 3) of the same compound?
Its Cmax is 5130 ng/mL.

What about the half-life ([2]; brain, ip 30 mg/kg, n = 3) of the same compound?
The half-life was 5.1 h.

And the Kp ([2]; brain, ip 30 mg/kg, n = 3)?
The Kp was 2.9.

And the permeability [2, 3]?
Its permeability is “good”.

What about the solubility [2, 3] of the same compound?
Its solubility is “good”.

And the “blood brain barrier passage” value ([2]; conclusion from the pharmacokinetic study, ip 30 mg/kg, mice)?
Its value is “passed the blood brain barrier”.

What about the AUC(0-inf) ([2]; heart, ip 30 mg/kg, n = 3) of the same compound?
Its AUC(0-inf) is 29200 ng·h/mL.

What about the Cmax ([2]; heart, ip 30 mg/kg, n = 3) of the same compound?
Its Cmax is 14300 ng/mL.

What about the half-life ([2]; heart, ip 30 mg/kg, n = 3) of the same compound?
The half-life was 4 h.

And the Kp ([2]; heart, ip 30 mg/kg, n = 3)?
The Kp was 8.4.

What about the AUC(0-inf) ([2]; pancreas, ip 30 mg/kg, n = 3) of the same compound?
Its AUC(0-inf) is 146000 ng·h/mL.

And the Cmax ([2]; pancreas, ip 30 mg/kg, n = 3)?
The Cmax was 105000 ng/mL.

And the half-life ([2]; pancreas, ip 30 mg/kg, n = 3)?
The half-life was 4.5 h.

And the Kp ([2]; pancreas, ip 30 mg/kg, n = 3)?
Its Kp is 42.

What about the AUC(0-inf) ([2]; plasma, ip 30 mg/kg) of the same compound?
The AUC(0-inf) was 3460 ng·h/mL.

And the half-life ([2]; plasma, ip 30 mg/kg)?
Its half-life is 7.1 h.

And the Cmax ([2]; plasma, ip 30 mg/kg, HCl salt in 20% HP-β-CD in saline)?
The Cmax was 1810 ng/mL.

What about the “motor functions (time to reach the top of the screen)” value (WFS1 gene knockout mice) of the same compound?
Its value is “improved motor functions”.
